For experiment [1], the system named is bladder cancer cell lines. As to the kind of experiment: Cell proliferation by MTT assay. The format is cell-based, human. The note with it: for growth of BC cells: bladder cancer cell lines, apigenin with increasing dosage; for cell growth, proliferation: low concentrations, single or co-treatment. How it is done:
(§1) Human BC cell lines T24, 5637, HT1197, HT1376, and RT4 were cultured in Eagle's Minimum Essential (for HT1197 and HT1376), McCoy's 5a Medium Modified (for T24 and RT4), and RPMI-1640 (for […]) medium (ATCC, Manassas, VA, USA) including 10% heat-inactivated FBS (Hyclone, Pittsburgh, PA, USA) and penicillin/streptomycin (Cellgro, Pittsburgh, PA, USA). 40 μM apigenin (Sigma-Aldrich, Burlington, MA, USA), 4-hydroxychalcone (Sigma-Aldrich), and diosmetin (Sigma-Aldrich) were treated for 24 hours to activate ID2 expression, and 20 μM RO-3306 (Sigma-Aldrich) and CGP74514A (Sigma-Aldrich) were treated for 24 hours to inhibit CDK1 activity.
(§2) The cell proliferation ability was determined by MTT assay (Sigma-Aldrich). Apoptosis was analyzed by annexin-V fluorescein isothiocyanate (FITC)/propidium iodide (PI) assay. Cells were subjected to trypsin, harvested, washed with PBS, resuspended in annexin-V binding buffer (10 mM HEPES, pH 7.4, 140 mM NaCl, 2.5 mM CaCl2)), and labeled with Annexin-V FITC and PI. FITC- and/or PI-labeled cell colonies were quantified by flow cytometry (Beckman Coulter, Brea, CA, USA).
Background: Formazan colour is commonly taken as a measure of viable cells.

For experiment [2], the system named is bladder cancer cell lines. The experiment in a line: Apoptosis by annexin-V FITC/PI flow cytometry. The format is cell-based, human. The note with it: for apoptosis of BC cells: bladder cancer cell lines, apigenin time-dependent treatment; for apoptosis of bladder cancer cells: low concentrations, single or co-treatment. How it is done: as §1, §2
On the technique in general: In flow cytometry, cells or beads pass a laser one at a time.

Experiment [3] concerns bladder cancer cell lines. The experiment in a line: Tumor sphere formation. It is filed as cell-based, human. How it is done:
To form tumor spheres, BC cells were resuspended in a single-cell suspension mixed with serum-free keratinocyte growth medium (Gibco, Waltham, MA, USA) and growth factor-reduced Matrigel (BD Biosciences, Mountain View, CA, USA) in a 1:1 ratio, and cultured on ultra-low attachment plates (Costar, Corning, NY, USA). The size of the tumor sphere was measured for 7 days after the first culture. For quantitative analysis, Image J software (National Institute of Mental Health, Bethesda, MD, USA) was used to measure the circumference of tumor sphere in eight representative regions randomly selected from each group.

For experiment [4], the system named is ID2. As to the kind of experiment: ID2 expression in bladder cancer cells (qPCR, Western blot). The format is cell-based, human. The note with it: HT1197 and HT1376 cells; ID2 activators 40 μM, CDK1 inhibitors 20 μM, 24 hours. The protocol: as §1
Real-time quantification PCR was used to perform quantitative analysis of gene expression. Total RNA was extracted using the QIAGEN RNeasy RNA isolation kit (QIAGEN, Valencia, CA, USA), and 50 ng of total RNA was reverse transcribed using Taqman Reverse Transcription Reagents (Applied Biosystems, Foster City, CA, USA). Threshold cycles (Ct) were used to determine the relative expression levels of target genes using the 2-DDCt method. The expression of GAPDH was used as an endogenous control gene.
(§3) Cell extracts (30 μg) were prepared in RIPA lysis buffer (Santa Cruz Biotechnology) supplemented with a protease and phosphatase inhibitor cocktail (Roche, Indianapolis, IN, USA) and isolated in a 12% SDS-PAGE gel. An expression level of the labeled protein was assessed by probing with the following antibodies: ID2 (NBP-88630; Novusbio, Centennial, CO, USA), TFCP2L1 (OAAB09732; Aviva Systems Biology, San Diego, CA, USA), CDK1 (sc-54; Santa Cruz), PARP (9542; Cell Signaling), Cleaved Caspase-3 (9661; Cell Signaling), b-ACTIN (A5441; Sigma-Aldrich), and Flag-epitope (F3165; Sigma-Aldrich).
(In general: Quantitative PCR measures a nucleic acid by following its amplification.)

The subject of experiment [5] is bladder cancer cell lines. As to the kind of experiment: Western blot of caspase-3 and PARP cleavage. It is filed as cell-based, human. The note with it: for cleavage of caspase-3 and PARP: low concentrations, single or co-treatment. The protocol: as §1, §3
The next experiment relates to HT1376 cells. As to the kind of experiment: Orthotopic xenograft BC animal model, tumor size and histological examination. It is filed as in vivo. The note with it: NSG mice; for tumor growth suppression/inhibition: i.p. apigenin 50 mg/kg and/or RO-3306 4 mg/kg, 6 times at 4-day intervals. How it is done: (§4) All animal experiments conducted in this experiment were carried out with the approval of the Institutional Animal Care Committee (IACUC-2020-12-209) of the University of Ulsan College of Medicine. 8-week-old male NOD/[…]) mice were purchased from GEM Biosciences Inc. (Cheongju, South Korea). 100 μl of 1.0×10^6 HT1376 BC cells were injected into the anterior wall of the bladder and the outer layer of the dome using a […] and a 26-gauge needle in the mice adapted for 1 week at the Animal Laboratory of Asan Medical Center, Seoul. Three weeks after orthotopic transplantation of BC cells, mice were injected intraperitoneally with RO-3306 (4 mg/kg) and apigenin (50 mg/kg), either alone or in combination, for 6 times at 4-day intervals. Mice and injection sites were monitored every 2 days for 45 days after the initial administration of BC cells. Tumor size was measured at the endpoint, and the tumor site was recovered by incision to perform histological examination or immunofluorescence assay. Mice were randomly assigned to the treatment group (N=5 or 10) and randomized to the sequence of cell transplantation, treatment, evaluation, and daily checkup. Investigations related to tumor size measurement and histological assessment were conducted as blind tests for the treatment group. For histological analysis, the bladder of xenograft mice was fixed with 4% paraformaldehyde for 1 day. After 24 hours of cryoprotection in 30% sucrose, each bladder was cut into 20 μm sections using cryostat (Leica, Lussloch, Germany) and stained with hematoxylin and eosin (H&E). For immunofluorescence (IF) staining, the bladder was stained with antibodies specific to ID2 (NBP-88630; Novusbio), TFCP2L1 (OAAB09732; Aviva Systems Biology), CDK1 (ab131450; Abcam, Cambridge, MA, USA), CD44 (ab78960; Abcam), and Cytokeratin 14 (KRT14; Ab7800). […] The stained samples were photographed using an inverted fluorescence microscope (EVOS FL Color Imaging System, Life Technologies).

Experiment [6] relates to ID2. The experiment in a line: ID2 protein expression in orthotopic xenograft bladder (immunofluorescence). It is filed as in vivo, mice. The note with it: HT1376 orthotopic xenograft; RO-3306 4 mg/kg alone or with apigenin 50 mg/kg i.p. The protocol: as §4, with “checkup.” for “checkup. Investigations related to tumor size measurement and histological assessment were conducted as blind tests for the treatment group. For histological analysis, the bladder of xenograft mice was fixed with 4% paraformaldehyde for 1 day. After 24 hours of cryoprotection in 30% sucrose, each bladder was cut into 20 μm sections using cryostat (Leica, Lussloch, Germany) and stained with hematoxylin and eosin (H&E). For immunofluorescence (IF) staining, the bladder was stained with antibodies specific to ID2 (NBP-88630; Novusbio), TFCP2L1 (OAAB09732; Aviva Systems Biology), CDK1 (ab131450; Abcam, Cambridge, MA, USA), CD44 (ab78960; Abcam), and Cytokeratin 14 (KRT14; Ab7800).”

A further experiment concerns CDK1. As to the kind of experiment: CDK1 protein expression in orthotopic xenograft bladder (immunofluorescence). It is filed as in vivo, mice. The note with it: HT1376 orthotopic xenograft; RO-3306 4 mg/kg alone or with apigenin 50 mg/kg i.p. How it is done:
as §4, with “checkup.” for “checkup. Investigations related to tumor size measurement and histological assessment were conducted as blind tests for the treatment group. For histological analysis, the bladder of xenograft mice was fixed with 4% paraformaldehyde for 1 day. After 24 hours of cryoprotection in 30% sucrose, each bladder was cut into 20 μm sections using cryostat (Leica, Lussloch, Germany) and stained with hematoxylin and eosin (H&E). For immunofluorescence (IF) staining, the bladder was stained with antibodies specific to ID2 (NBP-88630; Novusbio), TFCP2L1 (OAAB09732; Aviva Systems Biology), CDK1 (ab131450; Abcam, Cambridge, MA, USA), CD44 (ab78960; Abcam), and Cytokeratin 14 (KRT14; Ab7800).”

In a further experiment the test system is TFCP2L1. As to the kind of experiment: TFCP2L1 protein expression in orthotopic xenograft bladder (immunofluorescence). The note with it: HT1376 orthotopic xenograft; RO-3306 4 mg/kg alone or with apigenin 50 mg/kg i.p. The format is in vivo, mice. How it is done: as §4, with “checkup.” for “checkup. Investigations related to tumor size measurement and histological assessment were conducted as blind tests for the treatment group. For histological analysis, the bladder of xenograft mice was fixed with 4% paraformaldehyde for 1 day. After 24 hours of cryoprotection in 30% sucrose, each bladder was cut into 20 μm sections using cryostat (Leica, Lussloch, Germany) and stained with hematoxylin and eosin (H&E). For immunofluorescence (IF) staining, the bladder was stained with antibodies specific to ID2 (NBP-88630; Novusbio), TFCP2L1 (OAAB09732; Aviva Systems Biology), CDK1 (ab131450; Abcam, Cambridge, MA, USA), CD44 (ab78960; Abcam), and Cytokeratin 14 (KRT14; Ab7800).”

The subject of experiment [7] is bladder cancer cell lines. The experiment in a line: In vitro cell invasion (Transwell, Matrigel). The format is cell-based, human. The protocol:
The upper chamber of the Transwell permeable support (Corning Inc, Corning, NY, USA) with an 8.0 μm pore polycarbonate membrane filter was coated with Matrigel (BD Biosciences) diluted in a 1:5 ratio. BC cells were loaded into the upper chamber at 2×10^4 cell/well concentrations in 100 μL of serum-free DMEM, and culture medium containing 3% FBS was filled into the lower chamber. Cell invasiveness was evaluated by culturing cells at 37° C. for 24 hours in a 5% CO2 incubator and then counting the number of cells that migrated to the bottom of the membrane. Three fields of view (magnification, ×200) were randomly selected from each transwell chamber for quantitative analysis.

With `O=C(/C=C/c1ccc(O)cc1)c1ccccc1` [4-hydroxychalcone], the “growth of BC cells” value in experiment [1] is listed as “reduced the growth of bladder cancer cells”. For the same molecule, in [2], the “apoptosis of BC cells” value was “activated apoptosis”. Besides, in experiment [3], the “tumor sphere forming ability” value was “tumor forming ability was reduced”. In addition, the “expression of ID2 at RNA and protein levels” value (shortened to “expression of ID2”) in the experiment with ID2 [4] is on record as “increase in ID2 expression”.

Consider `O=C1NC(=NCc2cccs2)S/C1=C\c1ccc2ncccc2c1` [RO-3306], for which the “cell growth, proliferation” value in experiment [1] is recorded as “no significant effect”. In addition, in experiment [5], the “cleavage of caspase-3 and PARP” value was “no significant effect”. The “apoptosis of bladder cancer cells” value in [2] is reported as “does not induce”. Further, the tumor growth suppression/inhibition with HT1376 cells came to 66.8±2.48%. In addition, in the experiment with ID2 [4], the “expression of ID2” value is recorded as “increased”. Moreover, the “expression level of ID2 protein” value in the experiment on ID2 [6] is “low”. In addition, the “expression of CDK1 protein” value with CDK1 is given as “high”. In the experiment on TFCP2L1, the “expression of TFCP2L1 protein” value is “high”.

For `CCn1cnc2c(Nc3cccc(Cl)c3)nc(N[C@@H]3CCCC[C@@H]3N)nc21` [CGP74514A], in the experiment on ID2 [4], the “expression of ID2” value is on record as “increase in ID2 expression”.

With `COc1ccc(-c2cc(=O)c3c(O)cc(O)cc3o2)cc1O` [diosmetin], the “growth of BC cells” value in [1] is given as “reduced bladder cancer cell growth”. Further, the “apoptosis of BC cells” value in experiment [2] is reported as “activated apoptosis”. The “tumor sphere forming ability” value in experiment [3] is “decreased tumor forming ability”.

For the molecule `O=c1cc(-c2ccc(O)cc2)oc2cc(O)cc(O)c12` [apigenin], in [1], the “growth of BC cells” value is given as “decreased significantly” and the “cell growth, proliferation” value is given as “no significant effect”. For the same molecule, the “cleavage of caspase-3 and poly-(ADP-ribose) polymerase (PARP)” value in [5] (bladder cancer cell lines) was “resulted in cleavage of caspase-3 and poly-(ADP-ribose) polymerase (PARP)”. Further, the “cleavage of caspase-3 and PARP” value in experiment [5] is reported as “no significant effect”. In [2], the “apoptosis of BC cells” value is listed as “activated” and the “apoptosis of bladder cancer cells” value was “does not induce”. Moreover, in experiment [3], the “tumor sphere forming ability” value is “remarkably inhibit”. The “invasiveness of BC cells” value in experiment [7] is recorded as “remarkably inhibit”. Besides, the “histological examination: therapeutic effect, size and progression of bladder cancer” value with HT1376 cells (i.p. 6 times at 4-day intervals) is “therapeutic effect of apigenin on bladder cancer regardless of tumor grade”. Also, in the experiment with HT1376 cells, the tumor growth suppression/inhibition was determined as 74±6.13%. Further, the “expression of ID2” value in the experiment on ID2 [4] is recorded as “increased”.
